Measurements from US20220079924A1, “GLUCOCORTICOID RECEPTOR MODULATORS” (ORIC Pharmaceuticals, Inc., priority 2018, published 2022).

biological target: T1, GR (Homo sapiens, UniProt P04150); assay: In Vitro GR Luciferase Reporter Assay (antagonist assay); type: cell-based; conditions: CHO-K1-GR-MMTV-Luc reporter cells, 10 nM Dexamethasone, 18-24 hours
T1 construct: expressed in transfected cells; host or cells: CHO-K1 (CHO-K1-GR-MMTV-Luc reporter cells)
T1 sequence (P04150 1-777): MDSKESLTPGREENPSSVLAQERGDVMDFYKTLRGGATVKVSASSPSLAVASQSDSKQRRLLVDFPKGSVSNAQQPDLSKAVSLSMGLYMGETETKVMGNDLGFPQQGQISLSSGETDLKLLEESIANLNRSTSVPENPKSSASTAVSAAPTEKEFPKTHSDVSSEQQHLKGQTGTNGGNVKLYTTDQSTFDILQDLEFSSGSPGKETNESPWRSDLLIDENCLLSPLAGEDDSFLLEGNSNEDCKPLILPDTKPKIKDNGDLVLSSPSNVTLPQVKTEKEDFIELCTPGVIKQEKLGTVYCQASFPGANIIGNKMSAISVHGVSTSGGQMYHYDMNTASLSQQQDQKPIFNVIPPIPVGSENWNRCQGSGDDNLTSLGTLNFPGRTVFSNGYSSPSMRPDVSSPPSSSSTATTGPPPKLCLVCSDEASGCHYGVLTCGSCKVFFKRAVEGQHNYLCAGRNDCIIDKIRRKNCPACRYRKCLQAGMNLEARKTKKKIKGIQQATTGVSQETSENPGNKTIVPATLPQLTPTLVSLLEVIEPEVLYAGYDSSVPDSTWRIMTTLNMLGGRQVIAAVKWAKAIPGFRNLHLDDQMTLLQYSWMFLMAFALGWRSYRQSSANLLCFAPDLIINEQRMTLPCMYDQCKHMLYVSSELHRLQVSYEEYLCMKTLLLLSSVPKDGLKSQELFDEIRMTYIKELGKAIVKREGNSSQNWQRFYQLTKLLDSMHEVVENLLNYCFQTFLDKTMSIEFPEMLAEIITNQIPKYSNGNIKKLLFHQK
Method: Example A: In Vitro GR Luciferase Reporter Assay
Cell Line: CHO-K1-GR-MMTV-Luc reporter cells
Culture Media: DMEM (with phenol red)+10% FBS
Assay Media: DMEM (without phenol red)+10% CSS
Culture CHO-K1-GR-MMTV-Luc reporter cells in T175 flasks in Culture Media at conditions less than 90% confluence.
Using Bravo (Agilent) liquid handler:
200× DMSO 1:3 serial dilutions of control and test compounds in 96-well non-sterile V bottom plate in DMSO, 12 points for each compound were prepared.
Prepared 5× compound serial dilutions: Add 97.5 μL/well of Assay Media into 96-well non-sterile V bottom plate then added 2.5 ul of 200× concentration of compounds and mix well.
Seeded cells for Antagonist Assay: 5200 CHO-K1-GR-MMTV-Luc reporter cells were seeded in Greiner #781080 flat clear bottom 384-well white TC plate in 20 ul of Assay Media containing 12.5 nM Dexamethasone (final concentration=10 nM).
Added compounds: 5 μl of 5× compounds were added to appropriate wells and followed with a quick spin (1000 rpm, 10 sec) to bring media and cells to the bottom of plate. The plates were covered with SealMate film to avoid evaporation and placed in 37° C. incubator for approximately 18-24 hours.
Read plates: Equilibrate appropriate amount of Promega OneGlo luciferase reagent to room temperature. Remove the plates from incubator and add 25 uL of OneGlo reagent/well by Bravo and read the plates on Tecan Spark plate reader within 15 minutes.
The ability of the compounds disclosed herein to inhibit GR activity was quantified and the respective IC50 value was determined. Table 1 provides the cellular IC50 values of compounds disclosed herein.

SMILES	IC50 [nM]
Cn1cc(S(=O)(=O)N(C2CC2)[C@H]2CCC3=Cc4c(cnn4-c4ccc(F)nc4)C[C@]3(C(=O)c3ncc(C(C)(C)C)s3)C2)cn1 [Example 61]	≤ 100
O=C(c1cc(C(F)(F)F)ccn1)[C@]12Cc3cnn(-c4ccc(F)nc4)c3C=C1CC[C@H](N(C1CC1)S(=O)(=O)c1ccc(F)cc1)C2 [Example 19]	≤ 100
CC(C)N([C@H]1CCC2=Cc3c(cnn3-c3ccc(F)cc3)C[C@]2(C(=O)c2ncc(C(C)(C)C)s2)C1)S(=O)(=O)c1cnn(C)c1 [Example 63]	≤ 100
CC(C)N([C@H]1CCC2=Cc3c(cnn3-c3ccc(F)nc3)C[C@]2(C(=O)c2ncc(C(F)(F)F)s2)C1)S(=O)(=O)c1ncn(C)n1 [Example 38]	≤ 100
CC(C)N([C@H]1CCC2=Cc3c(cnn3-c3ccc(F)nc3)C[C@]2(C(=O)c2cc(F)ccn2)C1)S(=O)(=O)c1ncn(C)n1 [Example 66]	≤ 100
Cn1cnc(S(=O)(=O)N(C2CC2)[C@H]2CCC3=Cc4c(cnn4-c4ccc(F)nc4)C[C@]3(C(=O)c3cc(F)ccn3)C2)n1 [Example 48]	≤ 100
Cn1cnc(S(=O)(=O)N(C2CC2)[C@H]2CCC3=Cc4c(cnn4-c4ccc(F)cc4)C[C@]3(C(=O)c3cc4c(cn3)OCCO4)C2)n1 [Example 96]	≤ 100
C[C@H]([C@H]1CCC2=Cc3c(cnn3-c3ccc(F)cc3)C[C@]2(C(=O)c2ncc(C(C)(C)C)s2)C1)S(=O)(=O)c1cnn(C)c1 [Example 59]	≤ 100
Cn1cnc(S(=O)(=O)[C@H]2CCC3=Cc4c(cnn4-c4ccc(F)cc4)C[C@]3(C(=O)c3ccc(F)cn3)C2)n1 [Example 91]	≤ 100
Cn1cnc(S(=O)(=O)N(CC(F)F)[C@H]2CCC3=Cc4c(cnn4-c4ccc(F)cc4)C[C@]3(C(=O)c3cc(Cl)ccn3)C2)n1 [Example 31]	≤ 100
Cn1ncnc1S(=O)(=O)[C@H]1CCC2=Cc3c(cnn3-c3ccc(F)cc3)C[C@]2(C(=O)c2cc(C(F)(F)F)ccn2)C1 [Example 17]	≤ 100
CC(C)N([C@H]1CCC2=Cc3c(cnn3-c3ccc(F)nc3)C[C@]2(C(=O)c2cc(F)ccn2)C1)S(=O)(=O)c1cnn(C)c1 [Example 68]	≤ 100
Cn1cc(S(=O)(=O)N(C2CC2)[C@H]2CCC3=Cc4c(cnn4-c4ccc(F)nc4)C[C@]3(C(=O)c3cc(C(F)(F)F)ccn3)C2)cn1 [Example 18]	≤ 100
Cn1cc(S(=O)(=O)N[C@H]2CCC3=Cc4c(cnn4-c4ccc(F)cc4)C[C@]3(C(=O)c3cc(F)ccn3)C2)cn1 [Example 98]	100 to 1000
CCN([C@H]1CCC2=Cc3c(cnn3-c3ccc(F)nc3)C[C@]2(C(=O)c2cc(C(F)(F)F)ccn2)C1)S(=O)(=O)c1ncn(C)n1 [Example 49]	≤ 100
CC(C)N([C@H]1CCC2=Cc3c(cnn3-c3ccc(F)nc3)C[C@]2(C(=O)c2cc(Cl)ccn2)C1)S(=O)(=O)c1ccn(C)n1 [Example 85]	≤ 100
Cn1ccc(S(=O)(=O)N(C2CC2)[C@H]2CCC3=Cc4c(cnn4-c4ccc(F)cc4)C[C@]3(C(=O)c3cc(C(F)(F)F)ccn3)C2)c1 [Example 47]	≤ 100
Cn1cnc(S(=O)(=O)N([C@H]2CCC3=Cc4c(cnn4-c4ccc(F)cc4)C[C@]3(C(=O)c3cc(F)ccn3)C2)[C@H]2C[C@](O)(C(F)(F)F)C2)n1 [Example 43]	100 to 1000
Cn1cnc(S(=O)(=O)N(CC(F)(F)F)[C@H]2CCC3=Cc4c(cnn4-c4ccc(F)cc4)C[C@]3(C(=O)c3cc(Cl)ccn3)C2)n1 [Example 41]	≤ 100
CC(C)N([C@H]1CCC2=Cc3c(cnn3-c3ccc(F)cn3)C[C@]2(C(=O)c2cc(C(F)(F)F)ccn2)C1)S(=O)(=O)c1cnn(C)c1 [Example 6, N-((4aS,6S)-1-(5-Fluoropyridin-2-yl)-4a-(4-(trifluoromethyl)picolinoyl)-4,4a,5,6,7,8-hexahydro-1H-benzo[f]indazol-6-yl)-N-isopropyl-1-methyl-1H-pyrazole-4-sulfonamide]	≤ 100
CC(C)N([C@H]1CCC2=Cc3c(cnn3-c3ccc(F)nc3)C[C@]2(C(=O)c2cc(F)ccn2)C1)S(=O)(=O)c1ccn(C)n1 [Example 84]	≤ 100

Now from value to compound:

IC50 [nM]	SMILES
≤ 100	CC(C)N([C@H]1CCC2=Cc3c(cnn3-c3ccc(F)cc3)C[C@]2(C(=O)c2cc(F)ccn2)C1)S(=O)(=O)c1ncn(C)n1 [Example 81]
≤ 100	Cn1cnc(S(=O)(=O)N(C2CC2)[C@H]2CCC3=Cc4c(cnn4-c4ccc(F)cn4)C[C@]3(C(=O)c3cc(C(F)(F)F)ccn3)C2)n1 [Example 55]
≤ 100	CC(C)N([C@H]1CCC2=Cc3c(cnn3-c3ccc(F)cc3)C[C@]2(C(=O)c2cc(C(C)(C)C)ccn2)C1)S(=O)(=O)c1cnn(C)c1 [Example 64]
≤ 100	O=C(c1cc(Cl)ccn1)[C@]12Cc3cnn(-c4ccc(F)cc4)c3C=C1CC[C@H](N(C1CC(F)(F)C1)S(=O)(=O)c1ccc(F)cc1)C2 [Example 24]
≤ 100	Cn1cnc(S(=O)(=O)N([C@H]2CCC3=Cc4c(cnn4-c4ccc(F)cc4)C[C@]3(C(=O)c3ncc(C(F)(F)F)s3)C2)[C@H]2C[C@@H](C#N)C2)n1 [Example 14]
≤ 100	O=C(c1cc(F)ccn1)[C@]12Cc3cnn(-c4ccc(F)cc4)c3C=C1CC[C@H](N(C1CC(F)(F)C1)S(=O)(=O)c1cn[nH]c1)C2 [Example 99]
≤ 100	Cn1cc(S(=O)(=O)N(C2CC2)[C@H]2CCC3=Cc4c(cnn4-c4ccc(F)nc4)C[C@]3(C(=O)c3cc(F)ccn3)C2)cn1 [Example 3, N-Cyclopropyl-N-((4aS,6S)-4a-(4-fluoropicolinoyl)-1-(6-fluoropyridin-3-yl)-4,4a,5,6,7,8-hexahydro-1H-benzo[f]indazol-6-yl)-1-methyl-1H-pyrazole-4-sulfonamide]
≤ 100	Cn1cnc(S(=O)(=O)N(CC(F)(F)F)[C@H]2CCC3=Cc4c(cnn4-c4ccc(F)cc4)C[C@]3(C(=O)c3cc(F)ccn3)C2)n1 [Example 4, N-((4aS,6S)-1-(4-Fluorophenyl)-4a-(4-fluoropicolinoyl)-4,4a,5,6,7,8-hexahydro-1H-benzo[f]indazol-6-yl)-1-methyl-N-(2,2,2-trifluoroethyl)-1H-1,2,4-triazole-3-sulfonamide]
≤ 100	Cn1cnc(S(=O)(=O)[C@H]2CCC3=Cc4c(cnn4-c4ccc(F)cc4)C[C@]3(C(=O)c3cc(C(F)F)ccn3)C2)n1 [Example 90]
≤ 100	Cn1cnc(S(=O)(=O)N(C2CC(F)(F)C2)[C@H]2CCC3=Cc4c(cnn4-c4ccc(F)nc4)C[C@]3(C(=O)c3cc(F)ccn3)C2)n1 [Example 70]
≤ 100	Cn1cc(S(=O)(=O)N(C2CC(F)(F)C2)[C@H]2CCC3=Cc4c(cnn4-c4ccc(F)nc4)C[C@]3(C(=O)c3cc(F)ccn3)C2)cn1 [Example 71]
≤ 100	Cn1cc(S(=O)(=O)N(C2CC2)[C@H]2CCC3=Cc4c(cnn4-c4ccc(F)cc4)C[C@]3(C(=O)c3cc(F)ccn3)C2)cn1 [Example 80]
≤ 100	Cn1cnc(S(=O)(=O)N(C2CC2)[C@H]2CCC3=Cc4c(cnn4-c4ccc(F)cn4)C[C@]3(C(=O)c3ncc(C(C)(C)C)s3)C2)n1 [Example 65]
≤ 100	Cn1cnc(S(=O)(=O)N(C2CC2)[C@H]2CCC3=Cc4c(cnn4-c4ccc(F)cc4)C[C@]3(C(=O)c3cc(F)ccn3)C2)c1 [Example 2, N-Cyclopropyl-N-((4aS,6S)-1-(4-fluorophenyl)-4a-(4-fluoropicolinoyl)-4,4a,5,6,7,8-hexahydro-1H-benzo[f]indazol-6-yl)-1-methyl-1H-imidazole-4-sulfonamide]
